In brackets after ≈: the same amount, converted by molar mass. Like-named read-outs stand apart in the source and are kept apart here.
Tests used:
[1] = cited from earlier work
[2] = system: Chloroquine-Sensitive (NF54) strain of P. falciparum; assay type: cell-based; settings: 72 h [3H]-hypoxanthine incorporation; mean of two biological replicates
[3] = system: Chloroquine-Resistant (K1) strain of P. falciparum; assay type: cell-based; settings: for IC50 K1: 72 h [3H]-hypoxanthine incorporation, mean of two biological replicates
[4] = cited from earlier work; remark: listed apart in the source
[5] = system: Chloroquine-Sensitive (NF54) strain of P. falciparum; settings: parent compound; cited from earlier work
[6] = system: P. falciparum parasites harboring mutations in the Kelch protein, K13; settings: cited from earlier work
[7] = system: Chloroquine-Resistant (K1) strain of P. falciparum; settings: parent compound; cited from earlier work
[8] = single oral dose as low as 20 mg/kg; cited from earlier work

CC(C)(N)CNC(=O)C[C@H]1CC[C@]2(CC1)OO[C@]1(O2)C2CC3CC(C2)CC1C3 [Arterolane]
in vivo half-life ([1]; in vivo): 2 to 4 h

C[C@H]1[C@@H](O)O[C@@H]2O[C@@]3(C)CC[C@H]4[C@H](C)CC[C@@H]1[C@@]24OO3 [dihydroartemisinin]
in vivo half-life [1]: ~ 2 h

[O-][N+]1(CCOc2ccc(C3CCC4(CC3)OOC3(O4)C4CC5CC3CC(O)(C5)C4)cc2)CCOCC1 (stereo not shown) [compound 11]
IC50 NF54 [2]: >100/>100 ng/mL
IC50 K1 [3]: >100/>100 ng/mL

[O-][N+]1(CCOc2ccc(C3CCC4(CC3)OOC3(O4)C4CC5CC(C4)CC3C5)cc2)CCOCC1 (stereo not shown) [compound 8]
IC50 NF54 [2]: 2.3 ng/mL (≈ 4.74 nM)
IC50 K1 [3]: 1.4 ng/mL (≈ 2.88 nM)
in vitro activity against P. falciparum relative to parent 2 ([3]; K1 and NF54 strains, Table 1): comparable to 2
relative area under the plasma concentration versus time curve (AUC) of metabolites ([4]; human, in vivo): comparatively lower AUC values

c1cc([C@H]2CC[C@]3(CC2)OO[C@]2(O3)C3CC4CC(C3)CC2C4)ccc1OCCN1CCOCC1 [compound 2]
IC50 NF54 [5]: 1.9 ng/mL (≈ 4.05 nM)
activity against K13 mutant parasites [6]: active
IC50 K1 [7]: 1.6 ng/mL (≈ 3.41 nM)
cure rate [8]: 100%
safety ([4]; up to a dose of 1600 mg): good safety properties

From PMC8802618 (ACS infectious diseases, 2021)
